Experimental data published in patent US20240285599A1, “Mature-Hepatocyte Transdifferentiation Suppressing Composition” (OSAKA UNIVERSITY, priority 2021, published 2024).

Tested on: HuCCT1 cell xenograft
Assay: Xenograft of NIK shRNA-introduced HuCCT1 cells in NOG mouse
Format: in vivo
Conditions: HuCCT1 cells with shRNA introduced by lentivirus
Description: A histopathological slide was deparaffinized with xylene and ethanol. HE staining was performed with hematoxylin and eosin. In immunostaining, antigen activation was performed by heating in Target Retrieval Solution (Dako, USA), followed by blocking with bovine serum albumin and a reaction through use of a primary antibody at 4° C. overnight. A frozen section was dried at room temperature, and was blocked with BSA (Nacalai Tesque, Inc., Japan), followed by a reaction through use of a primary antibody in VECTASTAIN ABC Rabbit IgG Kit (Vector Laboratories, Inc., USA). DAB Substrate Kit (Vector Laboratories, Inc., USA) was used in a staining reaction. […] The number of Ki67-positive cells in a tumor was counted with ImageJ (Fiji). The immunostaining score of TRAF3 or NIK was calculated by multiplying a staining intensity (of from 0 to 3) by a stained area (%). Human ICC patients were grouped into two groups on the basis of the median immunostaining score of TRAF3 or NIK, and were evaluated for their disease-free survival (DFS) or overall survival (OS). […]
Further, the HuCCT1 cells were infected with negative control shRNA or NIK shRNA by using a lentivirus, and the infected cells were selected with puromycin. […] The measurement of the diameters of the tumors of the mice was started 3 weeks after the transplantation, and their tumor volumes were measured by the same method as that described above. […]

In the case of “NIK shRNA: shRNA against NIK, SEQ ID NO: 1, introduced into HuCCT1 cells by a lentivirus (CCGGCUCAGGACUCACGUAGCAUUACUCGAGUAAUGCUACGUGAGUCCUGAGUUUUU)”, the “number of Ki67-positive cells in tumors versus negative control shRNA-introduced tumors” value (FIG. 24B) was “significantly lower” and the “growth of xenografts derived from the HuCCT1 cells (tumor size)” value (measured from day 21 after transplantation, FIG. 24A) was “significantly suppressed”.
